This note sets out measurements from US8207204B2, “Triazole derivatives as SCD inhibitors” (GlaxoSmithKline LLC, priority 2007, dated 2012).

Structures can show the parent of a compound that is named as a salt.

As for `COc1ccc2nc(NC(=O)c3nnn(Cc4ccc(Cl)c(Cl)c4)c3C)sc2c1`, the melting point was 225 °C. For `Cc1c(C(=O)Nc2nc3[nH]c(=O)[nH]c(=O)c3s2)nnn1Cc1ccc(Cl)c(Cl)c1` the value was 279.9 °C.

As to `Cc1nc(NC(=O)c2nnn(Cc3ccc(Cl)c(Cl)c3)c2C)sc1C(=O)NCCN(C)C.Cl`, the melting point is 121 °C. `Cc1nc(NC(=O)c2nnn(Cc3ccc(Cl)c(Cl)c3)c2C)sc1C(=O)N(C)C` (as salt: hydrochloride) [Example 28, 1-[(3,4-Dichlorophenyl)methyl]-N-{5-[(dimethylamino)carbonyl]-4-methyl-1,3-thiazo1-2-yl}-5-methyl-1H-1,2,3-triazole-4-carboxamide]: the melting point was 144 °C. As to `CCOC(=O)c1nnc(NC(=O)c2nnn(Cc3ccc(Cl)c(Cl)c3)c2C)s1` [Example 3, Ethyl 5-[({1-[(3,4-dichlorophenyl)methyl]-5-methyl-1H-1,2,3-triazol-4-yl}carbonyl)amino]-1,3,4-thiadiazole-2-carboxylate], the melting point came to 203.8 °C. For `COC(=O)c1cnc(NC(=O)c2nnn(Cc3ccc(Cl)c(Cl)c3)c2C)s1` [Example 4, Methyl 2-[({1-[(3,4-dichlorophenyl)methyl]-5-methyl-1H-1,2,3-triazol-4-yl}carbonyl)amino]-1,3-thiazole-5-carboxylate] the value was 212 °C. Consider `Cc1c(C(=O)Nc2ncc(C=O)s2)nnn1Cc1ccc(Cl)c(Cl)c1` [Example 5, 1-[(3,4-Dichlorophenyl)methyl]-N-(5-formyl-1,3-thiazol-2-yl)-5-methyl-1H-1,2,3-triazole-4-carboxamide], for which the melting point was more than 260 °C. Turning to `Cc1nnc(NC(=O)c2nnn(Cc3ccc(Cl)c(Cl)c3)c2C)o1` [Example 6, 1-[(3,4-Dichlorophenyl)methyl]-5-methyl-N-(5-methyl-1,3,4-oxadiazol-2-yl)-1H-1,2,3-triazole-4-carboxamide], the melting point is 192.2 °C. `COCc1nnc(NC(=O)c2nnn(Cc3ccc(Cl)c(Cl)c3)c2C)s1` [Example 7, 1-[(3,4-Dichlorophenyl)methyl]-5-methyl-N-{5-[(methyloxy)methyl]-1,3,4-thiadiazo1-2-yl}-1H-1,2,3-triazole-4-carboxamide]: the melting point stood at 178.3 °C. `COC(=O)Cc1csc(NC(=O)c2nnn(Cc3ccc(Cl)c(Cl)c3)c2C)n1` [Example 8, Methyl {2-[({1-[(3,4-dichlorophenyl)methyl]-5-methyl-1H-1,2,3-triazol-4-yl}carbonyl)amino]-1,3-thiazol-4-yl}acetate]: the melting point worked out at 158 °C. Take `CCOC(=O)c1sc(NC(=O)c2nnn(Cc3ccc(Cl)c(Cl)c3)c2C)nc1C(F)(F)F` [Example 9, Ethyl 2-[({1-[(3,4-dichlorophenyl)methyl]-5-methyl-1H-1,2,3-triazol-4-yl}carbonyl)amino]-4-(trifluoromethyl)-1,3-thiazole-5-carboxylate]: the melting point was determined as 155 °C. On to `Cc1nc(NC(=O)c2nnn(Cc3ccc(Cl)c(Cl)c3)c2C)sc1C` [Example 10, 1-[(3,4-Dichlorophenyl)methyl]-N-(4,5-dimethyl-1,3-thiazol-2-yl)-5-methyl-1H-1,2,3-triazole-4-carboxamide], for which the melting point was 210.4 °C. In turn, `CCOC(=O)c1ccc2nc(NC(=O)c3nnn(Cc4ccc(Cl)c(Cl)c4)c3C)sc2c1` [Example 11, Ethyl 2-[({1-[(3,4-dichlorophenyl)methyl]-5-methyl-1H-1,2,3-triazol-4-yl}carbonyl)amino]-1,3-benzothiazole-6-carboxylate] displayed a melting point of 199 °C. Then `CCOC(=O)Cc1nc(NC(=O)c2nnn(Cc3ccc(Cl)c(Cl)c3)c2C)sc1C` [Example 12, Ethyl {2-[({1-[(3,4-dichlorophenyl)methyl]-5-methyl-1H-1,2,3-triazol-4-yl}carbonyl)amino]-5-methyl-1,3-thiazol-4-yl}acetate], with 125 °C; and `COC(=O)c1ccc(NC(=O)c2nnn(Cc3ccc(Cl)c(Cl)c3)c2C)nc1` [Example 14, Methyl 6-[({1-[(3,4-dichlorophenyl)methyl]-5-methyl-1H-1,2,3-triazol-4-yl}carbonyl)amino]-3-pyridinecarboxylate], with 179 °C; and `COC(=O)c1ccnc(NC(=O)c2nnn(Cc3ccc(Cl)c(Cl)c3)c2C)c1` [Example 15, Methyl 2-[({1-[(3,4-dichlorophenyl)methyl]-5-methyl-1H-1,2,3-triazol-4-yl}carbonyl)amino]-4-pyridinecarboxylate], with 172 °C. `Cc1nc(NC(=O)c2nnn(Cc3ccc(Cl)c(Cl)c3)c2C)sc1C(=O)O` [Example 16, 2-[({1-[(3,4-Dichlorophenyl)methyl]-5-methyl-1H-1,2,3-triazol-4-yl}carbonyl)amino]-4-methyl-1,3-thiazole-5-carboxylic acid]: the melting point turned out to be 262.6 °C.

Regarding `Cc1c(C(=O)Nc2ncc(C(=O)O)o2)nnn1Cc1ccc(Cl)c(Cl)c1` [Example 17, 2-[({1-[(3,4-Dichlorophenyl)methyl]-5-methyl-1H-1,2,3-triazol-4-yl}carbonyl)amino]-1,3-oxazole-5-carboxylic acid], the melting point came to 201.8 °C. Regarding `CNC(=O)c1sc(NC(=O)c2nnn(Cc3ccc(Cl)c(Cl)c3)c2C)nc1C` [Example 18, 1-[(3,4-Dichlorophenyl)methyl]-5-methyl-N-{4-methyl-5-[(methylamino)carbonyl]-1,3-thiazol-2-yl}-1H-1,2,3-triazole-4-carboxamide], the melting point worked out at 218.5 °C. Then `Cc1nc(NC(=O)c2nnn(Cc3ccc(Cl)c(Cl)c3)c2C)sc1C(=O)NCCC(C)C` [Example 19, 1-[(3,4-Dichlorophenyl)methyl]-5-methyl-N-(4-methyl-5-{[(3-methylbutyl)amino]carbonyl}-1,3-thiazol-2-yl)-1H-1,2,3-triazole-4-carboxamide], with 174.3 °C. As for `Cc1nc(NC(=O)c2nnn(Cc3ccc(Cl)c(Cl)c3)c2C)sc1C(=O)NC(C)C` [Example 20, 1-[(3,4-Dichlorophenyl)methyl]-5-methyl-N-(4-methyl-5-{[(1-methylethyl)amino]carbonyl}-1,3-thiazol-2-yl)-1H-1,2,3-triazole-4-carboxamide], the melting point is 204.4 °C. Compound `CCNC(=O)c1sc(NC(=O)c2nnn(Cc3ccc(Cl)c(Cl)c3)c2C)nc1C` [Example 21, 1-[(3,4-Dichlorophenyl)methyl]-N-{5-[(ethylamino)carbonyl]-4-methyl-1,3-thiazol-2-yl}-5-methyl-1H-1,2,3-triazole-4-carboxamide] registered a melting point of 194.1 °C. Then `Cc1c(C(=O)Nc2ncc(C(=O)NCCC(C)C)s2)nnn1Cc1ccc(Cl)c(Cl)c1` [Example 23], with 259.3 °C. In turn, `Cc1nc(NC(=O)c2nnn(Cc3ccc(Cl)c(Cl)c3)c2C)sc1C(=O)N1CCOCC1` [Example 24, 1-[(3,4-Dichlorophenyl)methyl]-5-methyl-N-[4-methyl-5-(4-morpholinyl-carbonyl)-1,3-thiazol-2-yl]-1H-1,2,3-triazole-4-carboxamide] returned a melting point of 202.9 °C.
